Assay [1] concerns the target T1, MAGL (Homo sapiens, UniProt Q99685).
T1 construct: Proteomes (human prefrontal cortex or cell membrane fractions); from tissue; host or cells: human prefrontal cortex (or cell membrane fractions)
T1 sequence (Q99685 1-303): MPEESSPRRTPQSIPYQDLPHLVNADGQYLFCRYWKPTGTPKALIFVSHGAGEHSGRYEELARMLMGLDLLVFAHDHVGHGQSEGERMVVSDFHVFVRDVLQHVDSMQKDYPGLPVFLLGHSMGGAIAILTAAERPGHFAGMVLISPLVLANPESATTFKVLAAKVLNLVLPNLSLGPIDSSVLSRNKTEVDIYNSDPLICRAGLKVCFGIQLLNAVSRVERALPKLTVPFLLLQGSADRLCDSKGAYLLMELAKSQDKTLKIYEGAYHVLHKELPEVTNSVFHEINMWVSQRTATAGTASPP
Kind of assay: In vitro competitive activity-based protein profiling (human), MAGL gel band. It is filed as biochemical. The procedure, abridged:
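Human prefrontal cortex or cell membrane proteomes (1.0-2.0 mg/mL protein) preincubated with inhibitors 30 min at 37° C, then labelled with FP-Rh or JW912 probe 30 min at room temperature. Residual MAGL activity read as fluorescent gel-band intensity after SDS-PAGE.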

The target of the next assay is T2, FAAH (Mus musculus, UniProt O08914).
T2 construct: Proteomes (mouse brain membrane fraction or cell lysates); from tissue; host or cells: mouse brain membrane fraction (or cell lysates)
T2 sequence (O08914 1-579): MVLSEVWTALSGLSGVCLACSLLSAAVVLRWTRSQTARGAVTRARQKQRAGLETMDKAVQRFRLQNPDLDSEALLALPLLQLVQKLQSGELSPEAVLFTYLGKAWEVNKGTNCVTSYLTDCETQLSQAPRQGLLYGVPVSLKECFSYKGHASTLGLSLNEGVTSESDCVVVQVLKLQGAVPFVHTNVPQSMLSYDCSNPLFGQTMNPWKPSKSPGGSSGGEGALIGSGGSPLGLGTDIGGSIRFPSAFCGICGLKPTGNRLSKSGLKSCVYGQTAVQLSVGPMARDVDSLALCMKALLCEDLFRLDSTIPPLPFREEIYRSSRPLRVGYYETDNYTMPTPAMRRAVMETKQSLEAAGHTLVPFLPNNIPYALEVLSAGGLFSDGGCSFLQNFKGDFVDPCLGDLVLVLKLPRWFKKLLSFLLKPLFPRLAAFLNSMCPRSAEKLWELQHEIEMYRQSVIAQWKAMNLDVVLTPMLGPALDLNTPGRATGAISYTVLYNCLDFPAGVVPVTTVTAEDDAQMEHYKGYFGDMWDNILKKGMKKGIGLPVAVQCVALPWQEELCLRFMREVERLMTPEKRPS
Nature of the assay: In vitro competitive activity-based protein profiling (mouse), FAAH gel band. It is filed as biochemical. The conditions noted are these: for IC50: mouse; for inhibition at 1 µM: read-out: FAAH % inh. 1 μM. The procedure, abridged: (§1)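 Mouse brain membrane proteome or cell lysate (1.0 mg/mL protein) preincubated 30 min at 37 °C with varying inhibitor concentrations, then labelled 30 min at 37 °C with FP-Rh or HT-01 probe (50 μM stock). After SDS-PAGE, activity taken from fluorescent intensity of the MAGL and FAAH gel bands.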

For assay [2], the target named is T3, MAGL (Mus musculus, UniProt O35678).
T3 construct: Proteomes (mouse brain membrane fraction or cell lysates); from tissue; host or cells: mouse brain membrane fraction (or cell lysates)
T3 sequence (O35678 1-303): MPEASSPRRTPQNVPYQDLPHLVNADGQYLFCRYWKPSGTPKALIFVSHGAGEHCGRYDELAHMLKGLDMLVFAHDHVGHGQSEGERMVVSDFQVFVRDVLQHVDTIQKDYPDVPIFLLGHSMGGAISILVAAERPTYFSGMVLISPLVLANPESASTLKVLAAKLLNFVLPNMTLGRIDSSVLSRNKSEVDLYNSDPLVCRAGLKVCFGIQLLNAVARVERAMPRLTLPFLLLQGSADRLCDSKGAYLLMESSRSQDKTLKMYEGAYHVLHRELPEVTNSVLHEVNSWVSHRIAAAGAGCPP
Nature of the assay: In vitro competitive activity-based protein profiling (mouse), MAGL gel band. It is filed as biochemical. Conditions: for IC50: mouse; for inhibition at 1 µM: read-out: MAGL % inh. 1 μM. The procedure, abridged: as §1

Assay [3] concerns the target T3, MAGL. Kind of assay: Mouse brain proteomes from inhibitor treated mice (oral gavage, sacrificed 4 h after administration). It is filed as in vivo. Conditions: read-out: MAGL % inh. 5 mg/kg. The method, boiled down:
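Wild-type C57Bl/6J mice got compound by oral gavage in polyethylene glycol vehicle. Brain proteomes were prepared 4 h after dosing and analyzed for serine hydrolase activity.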

Molecules are shown by their SMILES.

By IC50 is commonly meant the concentration at which inhibition is half-maximal. With `CC(=O)Nc1ccn(C(=O)N2CCN(Cc3ccc(C(F)(F)F)cc3N3CCC4(CCOCC4)C3)CC2)n1` [Example 45, N-(1-(4-(2-(8-oxa-2-azaspiro[4.5]decan-2-yl)-4-(trifluoromethyl)benzyl)piperazine-1-carbonyl)-1H-pyrazol-3-yl)acetamide], the IC50 on MAGL [1] was 100 to 1000 nM; on FAAH, 1000 to 10000 nM; on MAGL [2], at most 100 nM. Further, the figures for the inhibition at 1 µM at FAAH and on MAGL [2] were 0 to 25% and at least 75%, respectively. Further, on MAGL [3], the inhibition at 5 mg/kg fell in the range of 0 to 25%.
Consider `CC(=O)Nc1ccn(C(=O)N2CCN(Cc3ccc(Cl)cc3N3CCN(S(C)(=O)=O)CC3)CC2)n1` [Example 52, N-(1-(4-(4-chloro-2-(4-(methylsulfonyl)piperazin-1-yl)benzyl)piperazine-1-carbonyl)-1H-pyrazol-3-yl)acetamide], for which the results for the IC50 at MAGL [1], at FAAH and on MAGL [2] were at most 100 nM, 1000 to 10000 nM and at most 100 nM, respectively. For the same molecule, the inhibition at 1 µM at FAAH is 0 to 25%; at MAGL [2], at least 75%. The inhibition at 5 mg/kg on MAGL [3] was in the range of 0 to 25%.
As for `CC(=O)Nc1ccn(C(=O)N2CCC3(CCCN3Cc3ccc(Cl)c(C)c3)CC2)n1` [Example 94, N-(1-(1-(4-chloro-3-methylbenzyl)-1,8-diazaspiro[4.5]decane-8-carbonyl)-1H-pyrazol-3-yl)acetamide], the IC50 was at most 100 nM on MAGL [1], 1000 to 10000 nM at FAAH and at most 100 nM at MAGL [2]. Moreover, the inhibition at 1 µM on FAAH is 0 to 25%; at MAGL [2], at least 75%. Moreover, the inhibition at 5 mg/kg at MAGL [3] was at least 75%.
For the molecule `CC(=O)Nc1ccn(C(=O)N2CCC3(CCCN3Cc3ccc(C)c(Cl)c3)CC2)n1` [Example 96, N-(1-(1-(3-chloro-4-methylbenzyl)-1,8-diazaspiro[4.5]decane-8-carbonyl)-1H-pyrazol-3-yl)acetamide], the IC50 was at most 100 nM at MAGL [1], 1000 to 10000 nM on FAAH and at most 100 nM on MAGL [2]. Also, the inhibition at 1 µM is 0 to 25% at FAAH and at least 75% at MAGL [2]. Besides, the inhibition at 5 mg/kg at MAGL [3] was at least 75%.
Regarding `CC(=O)Nc1ccn(C(=O)N2CCN(Cc3ccc(C(F)(F)F)cc3N3CCN4CCC[C@H]4C3)CC2)n1` [Example 267, (S)-N-(1-(4-(2-(hexahydropyrrolo[1,2-a]pyrazin-2(1H)-yl)-4-(trifluoromethyl)benzyl)piperazine-1-carbonyl)-1H-pyrazol-3-yl)acetamide], the IC50 on MAGL [1] is at most 100 nM; on FAAH it was 1000 to 10000 nM; at MAGL [2], at most 100 nM. Also, the inhibition at 1 µM at FAAH was 0 to 25%; at MAGL [2], at least 75%.
As to `CC(=O)Nc1ccn(C(=O)N2CCN(Cc3ccc(C(F)(F)F)cc3N3CCN4CCC[C@@H]4C3)CC2)n1` [Example 268, (R)-N-(1-(4-(2-(hexahydropyrrolo[1,2-a]pyrazin-2(1H)-yl)-4-(trifluoromethyl)benzyl)piperazine-1-carbonyl)-1H-pyrazol-3-yl)acetamide], the IC50 is at most 100 nM at MAGL [1], 1000 to 10000 nM at FAAH and at most 100 nM at MAGL [2]. For the same molecule, the inhibition at 1 µM on FAAH was 0 to 25%; at MAGL [2] it was at least 75%.
Regarding `CC(=O)NC1CCN(c2cc(C(F)(F)F)ccc2CN2CCN(C(=O)n3ccc(NS(C)(=O)=O)n3)CC2)CC1` [Example 269, N-(1-(2-((4-(3-(methylsulfonamido)-1H-pyrazole-1-carbonyl)piperazin-1-yl)methyl)-5-(trifluoromethyl)phenyl)piperidin-4-yl)acetamide], the IC50 at MAGL [1] was at most 100 nM; at FAAH, 1000 to 10000 nM; on MAGL [2], at most 100 nM. In addition, the values for the inhibition at 1 µM on FAAH and on MAGL [2] were 0 to 25% and at least 75%, respectively.
Turning to `CC(C)(O)C1CCN(c2cc(C(F)(F)F)ccc2CN2CCN(C(=O)n3ccc(NS(C)(=O)=O)n3)CC2)CC1` [Example 270, N-(1-(4-(2-(4-(2-hydroxypropan-2-yl)piperidin-1-yl)-4-(trifluoromethyl)benzyl)piperazine-1-carbonyl)-1H-pyrazol-3-yl) methanesulfonamide], the IC50 at MAGL [1] was at most 100 nM; on FAAH, 1000 to 10000 nM; on MAGL [2], at most 100 nM. Also, the inhibition at 1 µM is 0 to 25% on FAAH and at least 75% at MAGL [2].
In the case of `CS(=O)(=O)Nc1ccn(C(=O)N2CCN(Cc3ccc(C(F)(F)F)c(N4CCC(F)CC4)c3)CC2)n1` [Example 271, N-(1-(4-(3-(4-fluoropiperidin-1-yl)-4-(trifluoromethyl)benzyl)piperazine-1-carbonyl)-1H-pyrazol-3-yl) methanesulfonamide], the IC50 at MAGL [1] was at most 100 nM. In addition, the inhibition at 1 µM is 0 to 25% on FAAH and at least 75% at MAGL [2].
`CC(=O)Nc1ccn(C(=O)N2CCN(Cc3ccc(C(F)(F)F)cc3C3CCN(CC(=O)O)CC3)CC2)n1` [Example 285, 2-(4-(2-((4-(3-acetamido-1H-pyrazole-1-carbonyl)piperazin-1-yl)methyl)-5-(trifluoromethyl)phenyl)piperidin-1-yl)acetic acid] came in with an IC50 at MAGL [1] of at most 100 nM. In addition, the inhibition at 1 µM on FAAH is 0 to 25%; on MAGL [2], at least 75%.
For `CS(=O)(=O)Nc1ccn(C(=O)N2CCN(Cc3ccc(C(F)(F)F)c(N4CCN5CCC[C@H]5C4)c3)CC2)n1` [Example 287, (S)-N-(1-(4-(3-(hexahydropyrrolo[1,2-a]pyrazin-2(1H)-yl)-4-(trifluoromethyl)benzyl)piperazine-1-carbonyl)-1H-pyrazol-3-yl) methanesulfonamide] the same measures were at most 100 nM, 0 to 25% and at least 75%.
For `CS(=O)(=O)Nc1ccn(C(=O)N2CCN(Cc3ccc(C(F)(F)F)c(N4CCC(O)CC4)c3)CC2)n1` [Example 289, N-(1-(4-(3-(4-hydroxypiperidin-1-yl)-4-(trifluoromethyl)benzyl)piperazine-1-carbonyl)-1H-pyrazol-3-yl) methanesulfonamide] the same measures were at most 100 nM, 0 to 25% and at least 75%.
As to `CS(=O)(=O)Nc1ccn(C(=O)N2CCN(Cc3ccc(C(F)(F)F)c(N4CCC(C(N)=O)CC4)c3)CC2)n1` [Example 291, 1-(5-((4-(3-(methylsulfonamido)-1H-pyrazole-1-carbonyl)piperazin-1-yl)methyl)-2-(trifluoromethyl)phenyl)piperidine-4-carboxamide], the inhibition at 1 µM on MAGL [1] (at 1 μM, read-out: MAGL human % inh at 1 μM) is 25%; at FAAH it was 0 to 25%; on MAGL [2], 0 to 25%.
Molecule `CS(=O)(=O)Nc1ccn(C(=O)N2CCN(Cc3ccc(Cl)c(N4CC[C@H](O)C4)c3)CC2)n1` [Example 292, (S)-N-(1-(4-(4-chloro-3-(3-hydroxypyrrolidin-1-yl)benzyl)piperazine-1-carbonyl)-1H-pyrazol-3-yl) methanesulfonamide] yielded an IC50 at MAGL [1] of at most 100 nM. The inhibition at 1 µM at FAAH was 0 to 25%; at MAGL [2], at least 75%.
The like results for `CS(=O)(=O)Nc1ccn(C(=O)N2CCN(Cc3ccc(Cl)c(N4CC[C@@H](O)C4)c3)CC2)n1` [Example 293, (R)-N-(1-(4-(4-chloro-3-(3-hydroxypyrrolidin-1-yl)benzyl)piperazine-1-carbonyl)-1H-pyrazol-3-yl) methanesulfonamide] were, in that order, at most 100 nM, 0 to 25% and at least 75%.
